Assay results reported in patent US8609836B2, “4-aryl-2-anilino-pyrimidines” (Janssen Pharmaceutica NV, priority 2008, dated 2013).

What was measured:
AuroraB (h) = AuroraB (h) (Homo sapiens, UniProt Q96GD4); test: Aurora-B human kinase inhibition, SPA; assay type: biochemical; conditions: read-out: AuroraB pIC50 (converted)
Procedure, shortened: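 SPA with biotinylated peptide (3 μM) in 60 mM Hepes pH 7.5, Mg/Mn 3 mM each, 0.5 μM ATP plus [γ-33P]ATP, AuroraB at 0.5 μg/ml. The reaction runs 60 min at room temperature and is stopped with EDTA and streptavidin PVT beads. 33P-substrate is read by scintillation imaging.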

CDK1/CyclinB (h) = CDK1/CyclinB (h) (Homo sapiens, UniProt P06493); test: CDK1/CyclinB human kinase inhibition, Invitrogen's FRET assay (Z'lyte); assay type: biochemical; conditions: read-out: CDK1 pIC50 (converted)
Procedure, shortened: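 Z'lyte FRET assay: human CDK1/CyclinB (0.2 μg/ml) with 2 μM Ser/Thr peptide 12 and 10 μM ATP in 50 mM Hepes pH 7.5, MgCl2, EGTA, Brij-35, 60 min at room temperature. Protease development 60 min, then emission ratio 460/538 nm read with excitation at 390 nm.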

CDK4/CyclinD1 (h) = CDK4/CyclinD1 (h) (Homo sapiens, UniProt P11802); test: CDK4/CyclinD1 human kinase inhibition, SPA with GST-pRb substrate; assay type: biochemical; conditions: read-out: CDK4 pIC50 (converted)
Procedure, shortened: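 Human CDK4/CyclinD1 (2.5 μg/ml) was incubated with 40 μg/ml GST-pRb and 2 nM [γ-33P]ATP in 50 mM Hepes pH 7.5, 8 mM NaF, 20 mM MgCl2, 1 mM DTT for 60 min at room temperature. EDTA stop with glutathione SPA beads; phosphorylation read by scintillation counting.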

PLK1 T210D (h) = PLK1 T210D (h) (Homo sapiens, UniProt P53350, T210D); test: PLK1 human kinase inhibition, SPA; assay type: biochemical; conditions: read-out: PLK1 pIC50 (converted)
Procedure, shortened: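 Radiometric SPA with PLK1 T210D (0.125 ng/ml) in 50 mM Hepes pH 8.0, 2 mM MnCl2, 1 mM DTT, 2 μM biotinylated peptide, 0.1 μM ATP plus 2 nM [γ-33P]ATP. 40 min at room temperature, EDTA stop. Phosphorylated substrate captured on streptavidin PVT beads, scintillation imaged.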

PLK2 (h) = PLK2 (h) (Homo sapiens, UniProt Q9NYY3); test: PLK2 human kinase inhibition, SPA; assay type: biochemical; conditions: read-out: PLK2 pIC50 (converted)
Procedure, shortened: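 SPA read on Leadseeker: PLK2 (30 μg/ml) with 2 μM biotinylated peptide, 0.1 μM ATP plus 2 nM [γ-33P]ATP in 50 mM Hepes pH 8.0, 2 mM MnCl2, 1 mM DTT. Reaction ran 20 min at room temperature, then EDTA stop and streptavidin PVT beads.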

HCT-116 = test: Cellular proliferation assay (Alamar blue), HCT-116; assay type: cell-based; conditions: Homo sapiens, 10% FCS, 72 hours with compound, Alamar blue 4 h
Procedure, shortened: (§1)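 Cells seeded 24 h without compound, then exposed to compounds for 72 h in 10% FCS at 37 °C, 5% CO2. Viability read by Alamar blue (resazurin 9 μg/ml) fluorescence at 544/590 nm after 6 h (U87-MG) or 24 h (A2780, MDA-MB-231) or 4 h (HCT-116) dye incubation; effect expressed relative to control cells.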

H1299 = test: Cellular proliferation assay (Alamar blue), H1299; assay type: cell-based; conditions: Homo sapiens, NCI-H1299; 10% FCS; 72 hours with compound; Alamar blue 4 h
Procedure, shortened: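 This proliferation assay on NCI-H1299 cells used an initial 24-hour compound-free incubation after seeding, followed by 72 hours of compound treatment with 10% FCS serum at 37° C. and 5% (v/v) CO2. Viable cells were quantified by a 4 h Alamar blue incubation and fluorescent plate reading at 544 nm/590 nm, and effects were expressed relative to control cells.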

U87-MG = test: Cellular proliferation assay (Alamar blue), U87-MG; assay type: cell-based; conditions: Homo sapiens, U-87 MG; 10% FCS; 72 hours with compound; Alamar blue 6 h; read-out: U87-MG (cellular proliferation assay, Table 4) (converted)
Procedure, shortened: as §1

A2780 = test: Cellular proliferation assay (Alamar blue), A2780; assay type: cell-based; conditions: Homo sapiens, 10% FCS, 72 hours with compound, Alamar blue 24 h, read-out: A2780 (cellular proliferation assay, Table 4) (converted)
Procedure, shortened: as §1

Sequence of AuroraB (h) (Q96GD4 whole entry): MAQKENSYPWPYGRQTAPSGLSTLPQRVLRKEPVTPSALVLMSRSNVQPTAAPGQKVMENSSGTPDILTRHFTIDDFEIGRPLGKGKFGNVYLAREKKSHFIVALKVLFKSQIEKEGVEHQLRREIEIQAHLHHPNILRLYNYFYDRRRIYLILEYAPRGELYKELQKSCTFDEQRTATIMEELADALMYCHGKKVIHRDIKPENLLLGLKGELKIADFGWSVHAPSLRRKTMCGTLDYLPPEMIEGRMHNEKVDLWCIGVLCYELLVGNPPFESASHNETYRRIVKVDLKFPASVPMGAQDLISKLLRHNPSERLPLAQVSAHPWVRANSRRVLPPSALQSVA
Sequence of PLK1 T210D (h) (P53350 whole entry T210D): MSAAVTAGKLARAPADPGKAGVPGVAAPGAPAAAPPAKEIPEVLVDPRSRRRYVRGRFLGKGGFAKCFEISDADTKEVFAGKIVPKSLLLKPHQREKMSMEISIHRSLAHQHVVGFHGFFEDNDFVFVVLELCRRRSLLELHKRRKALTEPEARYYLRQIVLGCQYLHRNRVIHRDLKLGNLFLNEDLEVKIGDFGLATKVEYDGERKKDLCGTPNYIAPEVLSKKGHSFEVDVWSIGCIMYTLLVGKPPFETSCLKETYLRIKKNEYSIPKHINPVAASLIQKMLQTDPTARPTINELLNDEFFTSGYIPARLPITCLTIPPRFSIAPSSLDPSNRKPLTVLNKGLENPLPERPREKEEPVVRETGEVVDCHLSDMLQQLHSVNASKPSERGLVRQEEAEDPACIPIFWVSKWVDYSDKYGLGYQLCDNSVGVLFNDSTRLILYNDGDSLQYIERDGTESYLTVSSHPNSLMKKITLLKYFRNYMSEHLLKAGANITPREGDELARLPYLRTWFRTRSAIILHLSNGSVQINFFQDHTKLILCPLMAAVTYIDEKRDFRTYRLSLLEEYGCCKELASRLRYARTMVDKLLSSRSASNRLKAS
Sequence of CDK1/CyclinB (h) (P06493 whole entry): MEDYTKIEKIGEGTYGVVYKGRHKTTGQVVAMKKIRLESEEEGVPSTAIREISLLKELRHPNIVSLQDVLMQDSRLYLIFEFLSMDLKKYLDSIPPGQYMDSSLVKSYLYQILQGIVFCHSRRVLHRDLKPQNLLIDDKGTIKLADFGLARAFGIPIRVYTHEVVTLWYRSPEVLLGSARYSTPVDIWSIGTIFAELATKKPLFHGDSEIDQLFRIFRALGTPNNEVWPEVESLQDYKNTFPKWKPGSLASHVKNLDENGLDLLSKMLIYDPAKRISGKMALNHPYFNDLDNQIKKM
Sequence of CDK1/CyclinB (h) (P14635 whole entry partner): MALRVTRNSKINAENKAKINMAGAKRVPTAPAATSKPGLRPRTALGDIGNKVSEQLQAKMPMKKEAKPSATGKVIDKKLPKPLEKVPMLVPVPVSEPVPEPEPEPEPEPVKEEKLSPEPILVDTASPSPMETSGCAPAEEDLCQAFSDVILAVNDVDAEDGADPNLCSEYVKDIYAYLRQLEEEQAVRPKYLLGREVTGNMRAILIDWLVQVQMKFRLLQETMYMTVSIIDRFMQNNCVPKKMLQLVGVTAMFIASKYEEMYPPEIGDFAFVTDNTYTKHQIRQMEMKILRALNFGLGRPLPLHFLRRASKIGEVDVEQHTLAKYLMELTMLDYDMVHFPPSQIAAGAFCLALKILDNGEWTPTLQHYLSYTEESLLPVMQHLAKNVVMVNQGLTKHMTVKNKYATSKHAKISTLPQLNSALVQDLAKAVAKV
Sequence of PLK2 (h) (Q9NYY3 whole entry): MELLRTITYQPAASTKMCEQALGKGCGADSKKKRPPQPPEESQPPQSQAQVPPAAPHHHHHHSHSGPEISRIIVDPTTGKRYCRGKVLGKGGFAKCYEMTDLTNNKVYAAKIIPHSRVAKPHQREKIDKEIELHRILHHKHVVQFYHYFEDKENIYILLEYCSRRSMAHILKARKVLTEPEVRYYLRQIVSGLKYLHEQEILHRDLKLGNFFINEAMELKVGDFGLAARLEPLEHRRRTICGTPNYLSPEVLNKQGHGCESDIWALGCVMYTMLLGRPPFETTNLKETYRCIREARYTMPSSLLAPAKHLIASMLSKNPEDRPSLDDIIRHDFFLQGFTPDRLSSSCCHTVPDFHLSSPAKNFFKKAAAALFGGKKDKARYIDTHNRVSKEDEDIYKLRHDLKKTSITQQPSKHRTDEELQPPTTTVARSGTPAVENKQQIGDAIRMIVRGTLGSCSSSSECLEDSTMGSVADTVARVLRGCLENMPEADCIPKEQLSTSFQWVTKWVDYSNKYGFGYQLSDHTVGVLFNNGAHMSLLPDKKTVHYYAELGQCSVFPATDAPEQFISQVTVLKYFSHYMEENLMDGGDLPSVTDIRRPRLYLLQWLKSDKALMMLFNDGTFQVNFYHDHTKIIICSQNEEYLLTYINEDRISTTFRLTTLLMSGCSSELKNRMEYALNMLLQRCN
Sequence of CDK4/CyclinD1 (h) (P11802 whole entry): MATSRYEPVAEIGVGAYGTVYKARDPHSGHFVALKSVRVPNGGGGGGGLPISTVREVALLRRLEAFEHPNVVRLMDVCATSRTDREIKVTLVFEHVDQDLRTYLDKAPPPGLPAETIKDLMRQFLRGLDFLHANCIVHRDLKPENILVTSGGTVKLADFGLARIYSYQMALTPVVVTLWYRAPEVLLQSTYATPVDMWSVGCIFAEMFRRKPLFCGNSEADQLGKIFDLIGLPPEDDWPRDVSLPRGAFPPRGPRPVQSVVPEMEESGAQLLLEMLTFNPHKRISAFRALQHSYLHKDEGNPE
Sequence of CDK4/CyclinD1 (h) (P24385 whole entry partner): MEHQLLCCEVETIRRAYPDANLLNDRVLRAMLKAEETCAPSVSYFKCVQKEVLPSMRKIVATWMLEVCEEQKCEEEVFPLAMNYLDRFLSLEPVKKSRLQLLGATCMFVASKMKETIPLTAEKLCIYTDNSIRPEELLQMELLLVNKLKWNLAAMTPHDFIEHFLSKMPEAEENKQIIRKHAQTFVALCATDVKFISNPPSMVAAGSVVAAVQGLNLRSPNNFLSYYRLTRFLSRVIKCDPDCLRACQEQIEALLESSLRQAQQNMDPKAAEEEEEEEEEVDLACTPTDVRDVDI

IC50 (AuroraB (h)) [µM]	IC50 (CDK1/CyclinB (h)) [µM]	IC50 (CDK4/CyclinD1 (h)) [µM]	IC50 (PLK1 T210D (h)) [µM]	IC50 (PLK2 (h)) [µM]	IC50 (HCT-116) [µM]	IC50 (H1299) [µM]	IC50 (U87-MG) [µM]	IC50 (A2780) [µM]	SMILES
4.37	4.17	2.14	> 10	> 10	3.8	6.92	6.76	2.34	O=C1NCc2cccc(c2)-c2ccnc(n2)Nc2ccc(N3CCOCC3)c(c2)CN2CCC[C@@H]12 [Compound 1]
> 10	> 10	1.91	> 10	> 10	5.25	> 10	> 10	> 10	COc1ccc2cc1CN1CCC(CC1)C(=O)N(C)CCN(C)c1ccc(cn1)-c1ccnc(n1)N2 [Compound 4]
1.66	0.195	0.562	> 10	> 10	0.105	0.38	0.575	0.195	O=C1NCCOc2ccc(cc2)-c2ccnc(n2)Nc2ccc(N3CCOCC3)c(c2)CN2CCC1CC2 [Compound 6]
6.31	3.47	6.46	> 10	> 10	6.03	> 10	4.37	> 10	O=C1NCCCOc2ccc(cc2)-c2ccnc(n2)Nc2ccc(N3CCOCC3)c(c2)CN2CCC[C@@H]12 [Compound 7]
> 10	> 10	7.94	> 10	> 10	7.76	> 10	1.55	> 10	O=C1CN2CCN(CC2)Cc2cc(ccc2N2CCOCC2)Nc2nccc(n2)-c2ccc(cc2)OCCN1 [Compound 9]
> 10	> 3.02	> 10	> 10	> 10	5.89	> 10	> 10	> 10	COc1ccc2cc1CN1CCN(CC1)CC(=O)N(C)CCN(C)c1ccc(cn1)-c1ccnc(n1)N2 [Compound 14]
> 10	0.0562	1.26	> 10	> 10	0.724		1.07	1.45	O=C1NCCCc2cc(ccn2)-c2ccnc(n2)Nc2cccc(c2)CN[C@H]1CO [Compound 19]
> 10	0.105	1.29	> 10	> 10	2.29		2.82	7.59	O=C1CN2CCN(CC2)Cc2cccc(c2)Nc2nccc(n2)-c2ccnc(c2)CCCN1 [Compound 21]
10.2	0.251	2.75	> 10	> 10	0.174	2.75	0.234	0.437	O=C1NCc2cccc(c2)-c2ccnc(n2)Nc2cc(CN3CCOCC3)cc(c2)CN2CCC[C@@H]12 [Compound 22]
> 10	> 10	4.27	> 10	> 10	3.8	> 10	4.27	5.89	CN(C)C(=O)c1ccc2cc1CN1CCC[C@H]1C(=O)NCc1cccc(c1)-c1ccnc(n1)N2 [Compound 24]
> 10	0.676	1.23	> 10	> 10	0.646	3.8	0.457	0.708	O=C1NCc2cccc(c2)-c2ccnc(n2)Nc2cc(CNC3CCOCC3)cc(c2)CN2CCC[C@@H]12 [Compound 29]
> 10	0.269	0.891	> 10	> 10	0.107	0.191	0.145	0.174	CN(C)Cc1cc2cc(c1)Nc1nccc(n1)-c1cccc(c1)CNC(=O)[C@@H]1CCCN1C2 [Compound 30]
> 10	0.933	1	> 10	> 10	1.02	1.78	2.24	5.01	CN(C)CCNCc1cc2cc(c1)Nc1nccc(n1)-c1cccc(c1)CNC(=O)[C@@H]1CCCN1C2 [Compound 31]
8.32	0.537	1.26	> 10	> 10	0.126	1.1	0.0513	0.224	COCCNCc1cc2cc(c1)Nc1nccc(n1)-c1cccc(c1)CNC(=O)[C@@H]1CCCN1C2 [Compound 33]
8.13	0.457	1.2	> 10	> 10	0.372	3.39	0.282	0.55	O=C1NCc2cccc(c2)-c2ccnc(n2)Nc2cc(CNC3CCCCC3)cc(c2)CN2CCC[C@@H]12 [Compound 36]
> 10	3.09	1.62	> 10	> 10	2.19	> 10	2.29	4.68	COCCNC(=O)c1ccc2cc1CN1CCC[C@H]1C(=O)NCc1cccc(c1)-c1ccnc(n1)N2 [Compound 40]
> 10	> 10	5.62	> 10	> 10	3.89	> 10	2.29	> 10	O=C(NC1CCCCC1)c1ccc2cc1CN1CCC[C@H]1C(=O)NCc1cccc(c1)-c1ccnc(n1)N2 [Compound 41]
> 10	~1.35	0.457	> 10	> 10	0.955	3.39	1.82	1.45	CN(C)CCNC(=O)c1ccc2cc1CN1CCC[C@H]1C(=O)NCc1cccc(c1)-c1ccnc(n1)N2 [Compound 42]
> 10	> 10	5.75	> 10	> 10	2.24	> 10	> 10	5.5	O=C(NC1CCOCC1)c1ccc2cc1CN1CCC[C@H]1C(=O)NCc1cccc(c1)-c1ccnc(n1)N2 [Compound 46]

SMILES	IC50 (AuroraB (h)) [µM]	IC50 (CDK1/CyclinB (h)) [µM]	IC50 (CDK4/CyclinD1 (h)) [µM]	IC50 (PLK1 T210D (h)) [µM]	IC50 (PLK2 (h)) [µM]	IC50 (HCT-116) [µM]	IC50 (H1299) [µM]	IC50 (U87-MG) [µM]	IC50 (A2780) [µM]
C[C@@H]1NCc2cc(ccc2N2CCOCC2)Nc2nccc(n2)-c2ccc(cc2)OCCCNC1=O [Compound 5]	> 10	> 10	1.29	> 10	> 10	1.74	> 10	> 10	> 10
CN1CCCNC(=O)[C@H](CO)NCc2cc(cc(N3CCOCC3)c2)Nc2nccc(n2)-c2ccc(cc2)C1 [Compound 10]	9.33	> 10	> 10	> 10	> 10	> 10	> 10	> 10	> 10
CN1CCCNC(=O)[C@@H]2CCCN2Cc2cc(cc(N3CCOCC3)c2)Nc2nccc(n2)-c2ccc(cc2)C1 [Compound 16]	> 10	> 10	> 10	> 10	> 10	> 10	> 10	8.13	9.55
